One compound from PMC5218480 (PLoS ONE, 2017) can be followed below.

In this test the test system is MV-4-11 cells. Put plainly: Gene expression microarray analysis (Affymetrix PrimeView) and GSEA. The class given is cell-based, human. Further details: RFU PODN (11730768_x_at) / Fold change /veh PODN (11730768_x_at) / RFU LINC00158 (11744669_a_at) / Fold change /veh LINC00158 (11744669_a_at) / RFU DUSP10 (11751237_a_at) / Fold change /veh DUSP10 (11751237_a_at) / RFU ID3 (11757404_x_at) / Fold change /veh ID3 (11757404_x_at) / RFU PLEKHG5 (11737974_s_at) / Fold change /veh PLEKHG5 (11737974_s_at) / RFU LRRC4B (11730491_at) / Fold change /veh LRRC4B (11730491_at) / RFU GIMAP4 (11747438_a_at) / Fold change /veh GIMAP4 (11747438_a_at) / RFU KRT8 (11758183_x_at) / Fold change /veh KRT8 (11758183_x_at) / RFU CNN1 (11734310_a_at) / Fold change /veh CNN1 (11734310_a_at) / RFU VPS37D (11726825_at) / Fold change /veh VPS37D (11726825_at) / RFU C10orf10 (11716522_x_at) / Fold change /veh C10orf10 (11716522_x_at) / RFU KIR2DL2 /// KIR2DL4 /// KIR2DL5A /// KIR2DL5B /// KIR2DS1 /// KIR2DS2 /// KIR2DS3 /// KIR2DS4 /// KIR3DL3 /// KIR3DL3 /// KIR3DS1 (11738374_at) / Fold change /veh KIR2DL2 /// KIR2DL4 /// KIR2DL5A /// KIR2DL5B /// KIR2DS1 /// KIR2DS2 /// KIR2DS3 /// KIR2DS4 /// KIR3DL3 /// KIR3DL3 /// KIR3DS1 (11738374_at) / RFU C1QL1 (11718748_at) / Fold change /veh C1QL1 (11718748_at) / RFU TMPRSS4 (11747572_a_at) / Fold change /veh TMPRSS4 (11747572_a_at) / RFU HAMP (11756126_x_at) / Fold change /veh HAMP (11756126_x_at) / RFU RNFT2 (11725882_a_at) / Fold change /veh RNFT2 (11725882_a_at) / RFU NR4A2 (11747474_a_at) / Fold change /veh NR4A2 (11747474_a_at) / RFU ABCC12 (11746883_a_at) / Fold change /veh ABCC12 (11746883_a_at) / RFU TMEM136 (11760407_x_at) / Fold change /veh TMEM136 (11760407_x_at) / RFU CLDN22 /// WWC2 (11732394_at) / Fold change /veh CLDN22 /// WWC2 (11732394_at) / RFU HLA-DPB1 (11760878_x_at) / Fold change /veh HLA-DPB1 (11760878_x_at) / RFU SPINT1 (11716480_a_at) / Fold change /veh SPINT1 (11716480_a_at) / RFU GAP43 (11754022_s_at) / Fold change /veh GAP43 (11754022_s_at) / RFU A4GNT (11735810_at) / Fold change /veh A4GNT (11735810_at) / RFU PRB3 (11715151_x_at) / Fold change /veh PRB3 (11715151_x_at) / RFU TUBB4B (11761932_at) / Fold change /veh TUBB4B (11761932_at) / RFU CAPN14 (11732068_a_at) / Fold change /veh CAPN14 (11732068_a_at) / RFU TMCC2 (11721928_a_at) / Fold change /veh TMCC2 (11721928_a_at) / RFU IRGQ (11745062_a_at) / Fold change /veh IRGQ (11745062_a_at) / RFU FAM174B (11720279_a_at) / Fold change /veh FAM174B (11720279_a_at) / RFU TMPRSS4 (11748680_a_at) / Fold change /veh TMPRSS4 (11748680_a_at) / RFU FAM212B (11763350_a_at) / Fold change /veh FAM212B (11763350_a_at) / RFU PLEKHG5 (11743358_a_at) / Fold change /veh PLEKHG5 (11743358_a_at) / RFU ZSCAN30 (11745921_a_at) / Fold change /veh ZSCAN30 (11745921_a_at) / RFU CMKLR1 (11741424_a_at) / Fold change /veh CMKLR1 (11741424_a_at) / RFU LOC101060620 /// MAPK8IP1 (11723275_at) / Fold change /veh LOC101060620 /// MAPK8IP1 (11723275_at) / RFU SPTSSB (11747773_x_at) / Fold change /veh SPTSSB (11747773_x_at) / RFU PRSS12 (11739890_at) / Fold change /veh PRSS12 (11739890_at) / RFU BIN1 (11741810_x_at) / Fold change /veh BIN1 (11741810_x_at) / RFU WNT11 (11732464_a_at) / Fold change /veh WNT11 (11732464_a_at) / RFU C10orf10 (11716521_a_at) / Fold change /veh C10orf10 (11716521_a_at) / RFU C5orf56 (11738089_at) / Fold change /veh C5orf56 (11738089_at) / RFU CYB561 (11721691_x_at) / Fold change /veh CYB561 (11721691_x_at) / RFU ANKRD19P (11752326_a_at) / Fold change /veh ANKRD19P (11752326_a_at) / RFU OR2T12 /// OR2T33 /// OR2T8 (11738714_s_at) / Fold change /veh OR2T12 /// OR2T33 /// OR2T8 (11738714_s_at) / RFU VCAN (11748164_a_at) / Fold change /veh VCAN (11748164_a_at) / RFU JSRP1 (11732532_at) / Fold change /veh JSRP1 (11732532_at) / RFU KRTAP10-11 (11738290_x_at) / Fold change /veh KRTAP10-11 (11738290_x_at) / RFU MYO3A (11730013_a_at) / Fold change /veh MYO3A (11730013_a_at) / RFU EBF3 (11725865_a_at) / Fold change /veh EBF3 (11725865_a_at) / RFU CAMK2N1 (11719241_x_at) / Fold change /veh CAMK2N1 (11719241_x_at) / RFU C5orf56 (11738088_a_at) / Fold change /veh C5orf56 (11738088_a_at) / RFU OLFML3 (11715873_a_at) / Fold change /veh OLFML3 (11715873_a_at) / RFU LOC100653217 /// NTM (11731650_a_at) / Fold change /veh LOC100653217 /// NTM (11731650_a_at) / RFU MAPK11 (11762145_a_at) / Fold change /veh MAPK11 (11762145_a_at) / RFU FIZ1 (11724087_x_at) / Fold change /veh FIZ1 (11724087_x_at) / RFU OASL (11726364_x_at) / Fold change /veh OASL (11726364_x_at) / RFU SOX15 (11748057_x_at) / Fold change /veh SOX15 (11748057_x_at) / RFU CD79A (11719716_a_at) / Fold change /veh CD79A (11719716_a_at) / RFU HIST1H1D (11736915_at) / Fold change /veh HIST1H1D (11736915_at) / RFU CASKIN2 (11723855_a_at) / Fold change /veh CASKIN2 (11723855_a_at) / RFU LOC730098 (11760151_x_at) / Fold change /veh LOC730098 (11760151_x_at) / RFU OR4N2 (11742367_at) / Fold change /veh OR4N2 (11742367_at) / RFU PRRT2 (11749266_a_at) / Fold change /veh PRRT2 (11749266_a_at) / RFU SNX32 (11753110_a_at) / Fold change /veh SNX32 (11753110_a_at) / RFU CDHR5 (11726645_a_at) / Fold change /veh CDHR5 (11726645_a_at) / RFU RCAN1 (11760418_a_at) / Fold change /veh RCAN1 (11760418_a_at) / RFU FAM167A (11723789_a_at) / Fold change /veh FAM167A (11723789_a_at) / RFU FAM26E (11764081_at) / Fold change /veh FAM26E (11764081_at) / RFU ISYNA1 (11749810_s_at) / Fold change /veh ISYNA1 (11749810_s_at) / RFU ACY1 (11761880_at) / Fold change /veh ACY1 (11761880_at) / RFU 11764098_at / Fold change /veh 11764098_at / RFU SAMD14 (11745864_x_at) / Fold change /veh SAMD14 (11745864_x_at) / RFU NPB (11741838_a_at) / Fold change /veh NPB (11741838_a_at) / RFU TMPRSS6 (11731388_a_at) / Fold change /veh TMPRSS6 (11731388_a_at) / RFU KRTAP10-2 (11738614_at) / Fold change /veh KRTAP10-2 (11738614_at) / RFU ARHGAP8 /// PRR5-ARHGAP8 (11727945_x_at) / Fold change /veh ARHGAP8 /// PRR5-ARHGAP8 (11727945_x_at) / RFU KRTAP5-7 /// NADSYN1 (11734609_at) / Fold change /veh KRTAP5-7 /// NADSYN1 (11734609_at) / RFU RASL12 (11751679_a_at) / Fold change /veh RASL12 (11751679_a_at) / RFU CDKN2B (11736163_a_at) / Fold change /veh CDKN2B (11736163_a_at) / RFU PRF1 (11729649_at) / Fold change /veh PRF1 (11729649_at) / RFU, ZNF638 /// ZNF638-IT1 / Fold change vs veh, ZNF638 /// ZNF638-IT1 / RFU, PANK3 / Fold change vs veh, PANK3 / RFU, SH3YL1 / Fold change vs veh, SH3YL1 / RFU, ZEB2 / Fold change vs veh, ZEB2 / RFU, NRIP1 / Fold change vs veh, NRIP1 / RFU, PTTG1IP / Fold change vs veh, PTTG1IP / RFU, CAPN2 / Fold change vs veh, CAPN2 / RFU, MED14 / Fold change vs veh, MED14 / RFU, SNORA58 / Fold change vs veh, SNORA58 / RFU, C1orf63 / Fold change vs veh, C1orf63 / RFU, LRRFIP1 / Fold change vs veh, LRRFIP1 / RFU, NDUFAF7 / Fold change vs veh, NDUFAF7 / RFU, SLC12A2 / Fold change vs veh, SLC12A2 / RFU, IBTK / Fold change vs veh, IBTK / RFU, ESF1 / Fold change vs veh, ESF1 / Fold change vs veh, TMEM50B / RFU, TAOK1 / Fold change vs veh, TAOK1 / RFU, ACBD3 / Fold change vs veh, ACBD3 / RFU, TMA16 / Fold change vs veh, TMA16 / RFU, RWDD3 / Fold change vs veh, RWDD3 / RFU, BCAT1 / Fold change vs veh, BCAT1 / RFU, EDEM3 / Fold change vs veh, EDEM3 / RFU, TMEM33 / Fold change vs veh, TMEM33 / RFU, WDR75 / Fold change vs veh, WDR75 / RFU, AHCTF1 / Fold change vs veh, AHCTF1 / RFU, TFRC / Fold change vs veh, TFRC / RFU, ZDHHC17 / Fold change vs veh, ZDHHC17 / RFU, NOM1 / Fold change vs veh, NOM1 / RFU, ARL8B / Fold change vs veh, ARL8B / RFU, ZBTB11 / Fold change vs veh, ZBTB11 / RFU, TAMM41 / Fold change vs veh, TAMM41 / RFU, KIAA1704 /// LOC100996395 / Fold change vs veh, KIAA1704 /// LOC100996395 / RFU, ING1 / Fold change vs veh, ING1 / RFU, TRMT61B / Fold change vs veh, TRMT61B / RFU, FUBP3 / Fold change vs veh, FUBP3 / RFU, TP53 / Fold change vs veh, TP53 / RFU, TNKS2 / Fold change vs veh, TNKS2 / RFU, ZFP14 / Fold change vs veh, ZFP14 / RFU, ACTR2 / Fold change vs veh, ACTR2 / RFU, PPP3R1 / Fold change vs veh, PPP3R1 / RFU, PIK3R1 / Fold change vs veh, PIK3R1 / RFU, HNRNPA1 / Fold change vs veh, HNRNPA1 / RFU, RNF170 / Fold change vs veh, RNF170 / RFU, ZNF28 / Fold change vs veh, ZNF28 / RFU, RNGTT / Fold change vs veh, RNGTT / RFU, OGT / Fold change vs veh, OGT / RFU, BRD1 / Fold change vs veh, BRD1 / RFU, MARS / Fold change vs veh, MARS / RFU, ZNF655 / Fold change vs veh, ZNF655 / RFU, FAHD1 / Fold change vs veh, FAHD1 / RFU, BDP1 / Fold change vs veh, BDP1 / RFU, LRRCC1 / Fold change vs veh, LRRCC1 / RFU, ARID1A / Fold change vs veh, ARID1A / RFU, ZNF146 / Fold change vs veh, ZNF146 / RFU, ZNF330 / Fold change vs veh, ZNF330 / RFU, GPN3 / Fold change vs veh, GPN3 / RFU, C9orf123 / Fold change vs veh, C9orf123 / RFU, N4BP2L2 / Fold change vs veh, N4BP2L2 / RFU, ARFIP1 / Fold change vs veh, ARFIP1 / RFU, FAM179B / Fold change vs veh, FAM179B / RFU, BCL10 / Fold change vs veh, BCL10 / RFU, UHRF1BP1L / Fold change vs veh, UHRF1BP1L / RFU, BET1 / Fold change vs veh, BET1 / RFU, CNOT2 / Fold change vs veh, CNOT2 / RFU, ZNF268 / Fold change vs veh, ZNF268 / Fold change vs veh, ZNF507 / RFU, DGCR2 / Fold change vs veh, DGCR2 / RFU, WDSUB1 / Fold change vs veh, WDSUB1 / Fold change vs veh, HSP90B1 /// MIR3652 / RFU, ADSS / Fold change vs veh, ADSS / RFU, GK / Fold change vs veh, GK / RFU, ZNF148 / Fold change vs veh, ZNF148 / RFU, TAF9 / Fold change vs veh, TAF9 / RFU, SLC1A5 / Fold change vs veh, SLC1A5 / RFU, SLMO2 / Fold change vs veh, SLMO2 / RFU, ABCC4 / Fold change vs veh, ABCC4 / RFU, LOC101060439 /// RAP1B / Fold change vs veh, LOC101060439 /// RAP1B / RFU, RFX7 / Fold change vs veh, RFX7 / RFU, GTPBP10 / Fold change vs veh, GTPBP10 / RFU, CNEP1R1 / Fold change vs veh, CNEP1R1 / RFU, BIVM-ERCC5 /// ERCC5 / Fold change vs veh, BIVM-ERCC5 /// ERCC5 / RFU, ILF3 / Fold change vs veh, ILF3 / RFU 11762660_at / Fold change /veh 11762660_at / RFU VCAN (11757783_s_at) / Fold change /veh VCAN (11757783_s_at) / RFU DDX43 (11728927_at) / Fold change /veh DDX43 (11728927_at) / RFU KRT8 (11758188_x_at) / Fold change /veh KRT8 (11758188_x_at) / RFU NKD1 (11759106_at) / Fold change /veh NKD1 (11759106_at) / RFU SRD5A1 (11742802_a_at) / Fold change /veh SRD5A1 (11742802_a_at) / RFU TPSAB1 /// TPSB2 (11721975_s_at) / Fold change /veh TPSAB1 /// TPSB2 (11721975_s_at) / RFU GSTM3 (11746129_a_at) / Fold change /veh GSTM3 (11746129_a_at) / RFU IL23R (11737362_x_at) / Fold change /veh IL23R (11737362_x_at) / RFU TMEM51 (11727254_a_at) / Fold change /veh TMEM51 (11727254_a_at) / RFU PIWIL2 (11732686_x_at) / Fold change /veh PIWIL2 (11732686_x_at) / RFU ORM1 (11744905_x_at) / Fold change /veh ORM1 (11744905_x_at) / RFU CCDC152 (11743942_at) / Fold change /veh CCDC152 (11743942_at) / RFU ECM1 (11717891_a_at) / Fold change /veh ECM1 (11717891_a_at) / RFU IL23R (11748794_a_at) / Fold change /veh IL23R (11748794_a_at) / RFU TNFAIP8L3 (11732012_x_at) / Fold change /veh TNFAIP8L3 (11732012_x_at) / RFU MBOAT4 (11741988_at) / Fold change /veh MBOAT4 (11741988_at) / RFU 11764193_at / Fold change /veh 11764193_at / RFU TMEM53 (11763286_at) / Fold change /veh TMEM53 (11763286_at) / RFU MAGEB2 (11727129_at) / Fold change /veh MAGEB2 (11727129_at) / RFU TMEM200A (11744735_a_at) / Fold change /veh TMEM200A (11744735_a_at) / RFU CCDC152 (11751479_a_at) / Fold change /veh CCDC152 (11751479_a_at) / RFU FAM211A (11726209_a_at) / Fold change /veh FAM211A (11726209_a_at) / RFU RGS16 (11746705_a_at) / Fold change /veh RGS16 (11746705_a_at) / RFU VCAN (11755009_s_at) / Fold change /veh VCAN (11755009_s_at) / RFU RHOB (11743442_s_at) / Fold change /veh RHOB (11743442_s_at) / RFU RGS16 (11720943_a_at) / Fold change /veh RGS16 (11720943_a_at) / RFU RGS16 (11720944_at) / Fold change /veh RGS16 (11720944_at) / RFU, VPS4B / Fold change vs veh, VPS4B / RFU, CREB1 / Fold change vs veh, CREB1 / RFU, DNAJC13 / Fold change vs veh, DNAJC13 / RFU, GNAQ / Fold change vs veh, GNAQ / RFU, CDK5R1 / Fold change vs veh, CDK5R1 / RFU, ZRANB3 / Fold change vs veh, ZRANB3 / RFU, CUL4A / Fold change vs veh, CUL4A / RFU, CCNY / Fold change vs veh, CCNY / RFU, UFL1 / Fold change vs veh, UFL1 / RFU, COG3 / Fold change vs veh, COG3 / RFU, DIAPH2 / Fold change vs veh, DIAPH2 / RFU, SKA2 / Fold change vs veh, SKA2 / RFU, AFF3 / Fold change vs veh, AFF3 / RFU, LMF1 / Fold change vs veh, LMF1 / RFU, IPO11 / Fold change vs veh, IPO11 / RFU, DFFB / Fold change vs veh, DFFB / RFU, FOXP1 / Fold change vs veh, FOXP1 / RFU, CARD8 / Fold change vs veh, CARD8 / RFU, STRN3 / Fold change vs veh, STRN3 / RFU, ADK / Fold change vs veh, ADK / RFU, RASSF2 / Fold change vs veh, RASSF2 / RFU, WIPF1 / Fold change vs veh, WIPF1 / RFU, LARP1B / Fold change vs veh, LARP1B / RFU, RASA1 / Fold change vs veh, RASA1 / RFU, RB1 / Fold change vs veh, RB1 / RFU, PPFIA1 / Fold change vs veh, PPFIA1 / RFU, MAT2A / Fold change vs veh, MAT2A / RFU, CCT5 / Fold change vs veh, CCT5 / RFU, WDR92 / Fold change vs veh, WDR92 / RFU, CUX1 / Fold change vs veh, CUX1 / RFU, TTC7A / Fold change vs veh, TTC7A / RFU, TMEM135 / Fold change vs veh, TMEM135 / RFU, DEPTOR / Fold change vs veh, DEPTOR / RFU, CPM / Fold change vs veh, CPM / RFU, DNAJB6 / Fold change vs veh, DNAJB6 / RFU, CACNA2D3 / Fold change vs veh, CACNA2D3 / RFU, DTX4 / Fold change vs veh, DTX4 / RFU, TFCP2 / Fold change vs veh, TFCP2 / RFU, GMCL1 /// GMCL1P1 / Fold change vs veh, GMCL1 /// GMCL1P1 / RFU, AEBP2 / Fold change vs veh, AEBP2 / RFU, SNHG1 /// SNORD22 /// SNORD25 /// SNORD26 /// SNORD27 /// SNORD28 /// SNORD29 /// SNORD31 / Fold change vs veh, SNHG1 /// SNORD22 /// SNORD25 /// SNORD26 /// SNORD27 /// SNORD28 /// SNORD29 /// SNORD31 / Fold change (Aza/veh), C12orf56 (ProbeSet 11735607_a_at) / Fold change (ACY-1035/veh), C12orf56 (ProbeSet 11735607_a_at) / Fold change (Aza/veh), FGFR1OP (ProbeSet 11751329_s_at) / Fold change (ACY-1035/veh), FGFR1OP (ProbeSet 11751329_s_at) / Fold change (Aza/veh), VPS36 (ProbeSet 11739960_a_at) / Fold change (ACY-1035/veh), VPS36 (ProbeSet 11739960_a_at) / RFU SYPL1 (11715823_x_at) / Fold change /veh SYPL1 (11715823_x_at) / RFU IGFBP7 (11715501_s_at) / Fold change /veh IGFBP7 (11715501_s_at) / RFU REEP3 (11722064_at) / Fold change /veh REEP3 (11722064_at) / RFU IGLL1 (11728026_x_at) / Fold change /veh IGLL1 (11728026_x_at): dose or concentration left out as unconfirmed. Conditions: ProbeSet 11743882_a_at; LIST D.

`Nc1ccc(-c2cccs2)cc1NC(=O)c1ccc2c(c1)cc(C1CC1)n2CCN1CCOCC1` [ACY-1035]: the “RFU, STRN3” value was determined as 114.91 RFU.
